From patent publication US20130072474A1, “TREATMENT OF DEMENTIA OF ALZHEIMER'S TYPE WITH MASITINIB” (AB SCIENCE, priority 2010, published 2013)

Key:
Src = Src (Homo sapiens, UniProt P12931); conditions: at therapeutic doses of masitinib; cited from earlier work
[1] = tested on: patients suffering from mild to moderate dementia of Alzheimer's type; test: Phase 2 study, MMSE; assay type: in vivo, human; conditions: for MMSE score, absolute change relative to baseline, Mean ± Std / MMSE score, absolute change relative to baseline, Median: Observed Cases, ITT population
Source text: A multicenter, randomized, double-blind, placebo-controlled, parallel-group phase 2 study evaluating the activity of masitinib given orally for 24 weeks has been performed in patients suffering from mild to moderate dementia of Alzheimer's type (protocol period completed, extension ongoing).
Patients: Patients enrolled in this study had dementia of Alzheimer's type (according to DSM IV criteria), probable Alzheimer's disease according to NINCDS-ADRDA criteria, MMSE≧12 and ≦26, and CDR of 1 or 2. […] Exclusion criteria included inadequate organ function (defined via blood test levels), dementia due to any other causes, uncontrolled depression, psychosis, delusions or delirium.
Treatment: In addition to a stable dose of acetylcholinesterase inhibitors and/or memantine, patients received masitinib or placebo, supplied as 100 and 200 mg tablets, per os for 24 weeks. Patients received masitinib or placebo initially at a daily total dose of 3 mg/kg or 6 mg/kg, administered twice daily with meals. Dose could be increased or decreased by 1.5 mg/kg/day depending on efficacy and toxicity assessments. Five patients were allocated to each masitinib dose for every three placebo patients. Treatment with any registered or putative cognitive enhancer or disease modifier (other than donepezil, galantamine, rivastigmine or memantine), or any investigational therapies was not allowed.
MMSE: assesses six items: orientation, learning, attention, word recall, language use and comprehension, and constructive praxis. A global score from 0 to 30 was computed, with higher scores indicating greater cognitive function (Folstein et al., 1975).
Statistical analyses: Efficacy was analyzed in the intent-to-treat (ITT) (all randomized patients, according to group of randomization) and per protocol (PP) (all patients without a major protocol deviation) populations. […] Efficacy criteria were analyzed using descriptive statistics, numbers and rates for categorical and discontinuous variables, parametric and non-parametric distribution elements for continuous variables.
Results are presented for the ITT population in the OC dataset (with LOCF for Centre #21 at Week 24).

Src, sequence (P12931 whole entry): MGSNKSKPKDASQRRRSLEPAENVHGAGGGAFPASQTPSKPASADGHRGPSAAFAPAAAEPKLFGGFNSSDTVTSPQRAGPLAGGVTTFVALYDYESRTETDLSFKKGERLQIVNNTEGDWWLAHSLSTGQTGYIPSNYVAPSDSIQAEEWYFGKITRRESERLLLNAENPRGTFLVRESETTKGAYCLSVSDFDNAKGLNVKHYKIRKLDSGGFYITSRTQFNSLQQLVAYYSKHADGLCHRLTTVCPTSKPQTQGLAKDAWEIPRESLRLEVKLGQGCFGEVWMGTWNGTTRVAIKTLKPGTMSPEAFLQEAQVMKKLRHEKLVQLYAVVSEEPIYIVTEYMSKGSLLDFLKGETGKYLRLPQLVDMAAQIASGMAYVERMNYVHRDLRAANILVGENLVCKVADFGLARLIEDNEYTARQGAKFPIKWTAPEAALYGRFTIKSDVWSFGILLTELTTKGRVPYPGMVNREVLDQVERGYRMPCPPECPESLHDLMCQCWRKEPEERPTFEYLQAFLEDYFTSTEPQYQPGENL

Cc1ccc(NC(=O)c2ccc(CN3CCN(C)CC3)cc2)cc1Nc1nc(-c2cccnc2)cs1 [masitinib, 4-(4-methylpiperazin-1-ylmethyl)-N-[4-methyl-3-(4-pyridin-3ylthiazol-2-ylamino)phenyl]benzamide]
inhibition of Src (Src): not inhibited at therapeutic doses
MMSE scores in masitinib-treated patients over time ([1]; 24 weeks, placebo-treated patients deteriorated (Week 12 p=0.047, Week 24 p=0.031)): remained stable over time
MMSE score, absolute change relative to baseline, Mean ± Std ([1]; W 4): 0.2 ± 2.0
MMSE score, absolute change relative to baseline, Median ([1]; W 4): −0.5
MMSE score, absolute change relative to baseline, Mean ± Std ([1]; W 8): −0.6 ± 2.8
MMSE score, absolute change relative to baseline, Median ([1]; W 8): 0.0
MMSE score, absolute change relative to baseline, Mean ± Std ([1]; W 12): 0.1 ± 2.5
MMSE score, absolute change relative to baseline, Median ([1]; W 12): 0.0
MMSE score, absolute change relative to baseline, Mean ± Std ([1]; W 24): −0.4 ± 5.6
MMSE score, absolute change relative to baseline, Median ([1]; W 24): 1.0
MMSE score, absolute change relative to baseline, Mean ± Std ([1]; W 24 LOCF center 21): −0.1 ± 4.3
MMSE score, absolute change relative to baseline, Median ([1]; W 24 LOCF center 21): 0.0
